In US20040224981A1, “Antibacterial methods and compositions” (priority 2003, published 2004):
Like-named read-outs stand apart in the source and are kept apart here.

System: S. aureus
Test: MIC against S. aureus strains and clinical isolates (broth microdilution)
Format: cell-based, Staphylococcus aureus
Conditions: Staphylococcus aureus; for MIC50: read-out: MIC50
Method in brief: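 Broth microdilution per NCCLS in cation-supplemented Mueller-Hinton broth, final inoculum 5×10^5 CFU/ml from 0.5 McFarland suspensions diluted 1:10. Trays incubated aerobically overnight with quality control strains each run. Checkerboard FIC index: ≦0.5 synergy, >0.5 to 4 additive/indifferent, >4.0 antagonism.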

C/C(=C\C(=O)OCCCCCCCCC(=O)O)C[C@@H]1OC[C@H](C[C@@H]2O[C@H]2[C@@H](C)[C@H](C)O)[C@@H](O)[C@H]1O [Mupirocin, Pseudomonic acid A]
0.5 µg/mL: MIC (NRS 3 / VISA, VISA, S. aureus NRS3 (HIP5827), read-out: MIC)
< 0.06 µg/mL: MIC (S. aureus 101-100 (Mup. Susc.), read-out: MIC)
64 µg/mL: MIC (S. aureus 14-354 (LL Mup. Rest.), read-out: MIC) | MIC (S. aureus Miles Hall, read-out: MIC)
32 µg/mL: MIC (NRS127, Table 6, low-level mupirocin-resistant S. aureus NRS127, read-out: MIC) | MIC (S. aureus 31-1334 (LL Mup Rest.), read-out: MIC) | MIC (S. aureus 36-1298 (LL Mup. Rest.), read-out: MIC) | MIC (S. aureus LZ8 (LL Mup. Rest.), read-out: MIC) | MIC (Table 6, low-level mupirocin-resistant S. aureus Miles Hall, read-out: MIC) | MIC50 (all S. aureus isolates of Table 6)
0.06 µg/mL: MIC (NRS 1 / VISA, VISA, S. aureus NRS1 (Mu50), read-out: MIC) | MIC (Table 6, S. aureus (mupirocin-susceptible) 010-100, read-out: MIC)
8 µg/mL: MIC (NRS 18 / VISA, VISA, S. aureus NRS18 (HIP06854), read-out: MIC) | MIC (NRS 24 / VISA, VISA, S. aureus NRS24 (HIP09143), read-out: MIC)
0.03 µg/mL: MIC (NRS 49 / VISA, VISA, S. aureus NRS49 (Korea), read-out: MIC)
0.25 µg/mL: MIC (ATCC43300, Table 2, S. aureus ATCC 43300 (ORSA), read-out: MIC) | MIC (ATCC43300, Table 3, S. aureus ATCC 43300 (ORSA), read-out: MIC) | MIC (S. aureus 87-2797 (Mup. Susc.), read-out: MIC) | MIC (S. aureus LZ9, read-out: MIC) | MIC (S. aureus LZ10, read-out: MIC)
0.12 µg/mL: MIC (ATCC29213, Table 2, S. aureus ATCC 29213, read-out: MIC) | MIC (ATCC29213, Table 3, S. aureus ATCC 29213, read-out: MIC) | MIC (ATCC29213, Table 4, S. aureus ATCC 29213, read-out: MIC) | MIC (ATCC43300, S. aureus ATCC 43300 (ORSA), read-out: MIC) | MIC (NRS 1 / VISA, S. aureus NRS1 (VISA), read-out: MIC) | MIC (NRS 4 / VISA, VISA, S. aureus NRS4 (HIP5836), read-out: MIC) | MIC (NRS 56 / VISA, VISA, S. aureus NRS56 (Brazil), read-out: MIC) | MIC (S. aureus Oxford, read-out: MIC) | MIC (Table 6, S. aureus (mupirocin-susceptible) 087-2789, read-out: MIC) | MIC (Table 6, S. aureus (mupirocin-susceptible) LZ9, read-out: MIC) | MIC (Table 6, S. aureus (mupirocin-susceptible) LZ10, read-out: MIC) | MIC50 (oxacillin-resistant S. aureus, Oxa-R (42))
> 64 µg/mL: MIC (NRS107, S. aureus NRS107 (HL Mup rest.), read-out: MIC) | MIC (S. aureus 10-420 (LL Mup. Rest.), read-out: MIC) | MIC (S. aureus 25-670 (HL Mup. Rest.), read-out: MIC) | MIC (S. aureus 87-2797 (HL Mup. Rest.), read-out: MIC) | MIC (S. aureus LZ1 (HL Mup rest.), read-out: MIC) | MIC (S. aureus LZ6 (HL Mup rest.), read-out: MIC) | MIC90 (all S. aureus strains of Table 1, read-out: MIC 90)
> 8 µg/mL: MIC (NRS 54 / VISA, VISA, S. aureus NRS54 (Brazil), read-out: MIC) | MIC (NRS107, Table 2, S. aureus NRS107 (mupA), read-out: MIC) | MIC (NRS107, Table 3, S. aureus NRS107 (mupA), read-out: MIC) | MIC (NRS107, Table 4, S. aureus NRS107 (mupA), read-out: MIC) | MIC (VISA, three of the VISA isolates (poor activity), read-out: MICs)
16 µg/mL: MIC (Table 6, low-level mupirocin-resistant S. aureus 014-354, read-out: MIC) | MIC (Table 6, low-level mupirocin-resistant S. aureus 031-1334, read-out: MIC) | MIC (Table 6, low-level mupirocin-resistant S. aureus 036-1298, read-out: MIC) | MIC (Table 6, low-level mupirocin-resistant S. aureus 1081148, read-out: MIC) | MIC (Table 6, low-level mupirocin-resistant S. aureus LZ8, read-out: MIC)
> 256 µg/mL: MIC (NRS54, Table 6, high-level mupirocin-resistant S. aureus NRS54, read-out: MIC) | MIC (NRS107, Table 6, high-level mupirocin-resistant S. aureus NRS107, read-out: MIC) | MIC (Table 6, high-level mupirocin-resistant S. aureus 010-420, read-out: MIC) | MIC (Table 6, high-level mupirocin-resistant S. aureus 25-670, read-out: MIC) | MIC (Table 6, high-level mupirocin-resistant S. aureus 87-2797, read-out: MIC) | MIC (Table 6, high-level mupirocin-resistant S. aureus 1079101, read-out: MIC) | MIC (Table 6, high-level mupirocin-resistant S. aureus LZ1, read-out: MIC) | MIC (Table 6, high-level mupirocin-resistant S. aureus LZ6, read-out: MIC) | MIC90 (all S. aureus isolates of Table 6, read-out: MIC90)
